These results are taken from PMC6969166, “The molecular basis of pyrazinamide activity on Mycobacterium tuberculosis PanD” (Nature Communications, 2020).

The target of the test is Mtb PanD Arg54 to alanine (Mycobacterium tuberculosis, UniProt P9WIL3, R54A). The class given is binding.

On to `O=C(O)c1cnccn1` [POA, pyrazinoic acid], for which the “binding in ITC” value was “no binding”.
